# Reference: patent US20260325500A1, “METHODS AND COMPOSITIONS FOR TREATING ACUTE STRESS DISORDER” (BioXcel Therapeutics, Inc., priority 2022, published 2026)
# Where a name gives a salt, the structure may show the parent alone. Marks after values point to notes of the source that are not given here.
# How the values were obtained:
# [1] = system: CCK-4 induced panic anxiety in rats; experiment: Elevated plus maze, CCK-4 induced panic anxiety (Example 8); format: in vivo, Wistar rats; details: for Entries, % increase as compared to CCK-4/Vehicle / Entries, Mean ± SEM / Time, % increase as compared to CCK-4/Vehicle / Time, Mean ± SEM: CCK4 0.2 mg/kg i.p.
# Description: Rationale: In the past two decades panic induction with cholecystokinin-tetrapeptide (CCK-4) as an experimental model of human anxiety has become a focus of intensive research. CCK-4 is a synthetic analog of the endogenous neuropeptide cholecystokinin (CCK), which has been found in different brain regions. Particularly, high concentrations of CCK have been detected in regions that have been implicated in the mediation of panic attacks such as the cerebral cortex, amygdala, hippocampus, and brainstem nuclei. CCK-4 dose dependently induces panic attacks in healthy controls. Thus, CCK-4 has been postulated to fulfil the criteria for an ideal and valid panicogenic agent. […] Therefore, the CCK-4 challenge paradigm can serve as a useful tool to evaluate the anti-panic potential of novel anxiolytic compounds.
# Animal groups: Male Wistar Rats were purchased at a body weight of 150 g and reached a body weight of about 220 g at the time of use. Animals were distributed in 6 different experimental groups with 12 […] per group as illustrated in Table 11. Each experimental group was also coded so that the experimenter became unaware of the true experimental group at the time EPM trial.
# Study drugs: All compounds/drugs were prepared in saline (0.9% NaCl).
# CCK-4 was prepared at a solution of 0.2 mg/ml which when injected i.p. at a dosage volume of 1 ml/kg results in a dose of 0.2 mg/kg.
# Diazepam was prepared at a solution of 1 mg/ml which when injected i.p. at a dosage volume of 1 ml/kg results in a dose of 1 mg/kg.
# Latrepirdine was prepared at concentrations of 2.5, 7.5, 25 and 37.5 mg/ml which when injected i.m. at a volume of 100 μL for a rat of 250 g results in doses of 1, 3, 10 and 15 mg/kg respectively.
# Study design and dosing: The rats were randomly assigned to one of the different experimental groups. Each animal was identified by its group name, cage number, series (day) of experiment, and a number (from 1 to 4) written with permanent ink on its tail. They were handled by an experimenter for about 3 min each day during 1 week prior to the day of EPM trial.
# The apparatus is a PVC maze covered with Plexiglas and subdivided into four equal exploratory arms (40×10 cm), which are all interconnected by a small platform (10×10 cm). The apparatus is placed 65 cm above the floor. Two arms are opened, and two others are closed with wall (high: 10 cm).
# After compound administration, rat is placed on the platform opposite a closed arm. The number of entries and the time spent in each arm are recorded during a 5 min period. The animal is considered as entered in an arm when it places its four paws in the arm.
# Statistical analysis: Data was analyzed using One-Way ANOVA followed by multiple comparison with Dunnett's post-hoc test. All statistical analyses were performed using GraphPad Prism software package (Version 9) and p value below 0.05 was considered as significant.
# [2] = system: aggressive behavior of male Swiss albino mice; experiment: Resident intruder task, aggressive behavior (Example 5); format: in vivo; details: for agitation/aggression in resident mice: mouse, in vivo
# Description: Animal groups: Swiss albino male mice were distributed in 13 different experimental groups with 6-14 mice per group as illustrated in Table 9. Each experimental group was also coded so that the experimenter became unaware of the true experimental group during RI assay.
# Rationale: The resident-intruder stress is an ethologically relevant model to examine mechanisms underlying stress-related psychiatric disorders. In male rats, a single resident-intruder exposure activates LC neurons. Considered as a major stress response system, LC-NE activation is critical in maintaining arousal in response to acute stress.
# Study drugs: The test substances (Dexmedetomidine hydrochloride, latrepirdine dihydrochloride hydrate and sodium valproate) were dissolved in 0.9% normal saline which served as the vehicle. β-Estradiol was dissolved in 0.9% normal saline.
# Study design and dosing: Bilateral ovariectomy surgery was carried out in 3-4 weeks old female Swiss albino mice as per the standard methods (Alagwu and Nneli, 2005). Animals were anesthetized using Avertin (2,2,2-Tribromoethanol) at 250 mg/kg, i.p. and were laid down on the surgery table and fixed with adhesive plaster. A midline incision was made on the dorsal region below the rib and 1 cm lateral to the either side of midline, a small incision was made on fascia to isolate the adipose fat supporting the ovaries. By slowly pulling out the fat tissue, the ovary was identified and excised the following uterine horn ligation with silk sutures. Fascia was covered with sutures and similar procedure was repeated on the other side as well. Superficial skin layers were sutured and gentamicin (80 mg/kg, s.c.) was given as antibiotic and meloxicam (4 mg/kg, s.c.) as analgesic, then povidone iodine was applied on superficial skin layers. Polyethylene glycol (PEG) was applied to prevent drying of eye balls and kept for recovery period of 3 weeks (surgery was carried by a single experimenter). Male Swiss albino mice (25-40 grams, Resident animals) was housed individually i.e., 1 animal/cage with an ovariectomized female Swiss albino mice for a period of three weeks (Isolated habituation). During this habituation period, female mice were treated with β-Estradiol at a dose of 0.2 mg/kg, s.c. Male Swiss albino mice (10-20 grams, Intruder animals) were housed 5 animals/cage for a period of five days (Social habituation). On the day of exposure, animals were brought into the experimental room 60 minutes before starting the experiment, to habituate them to the experimental conditions. […]
# Statistical analysis: Data obtained was compared with basal scoring by using Student's paired two tailed t-test. Duration of attack, and latency of attack between the groups was analyzed using One-Way ANOVA followed by Bonferroni's posthoc test. […]
# [3] = 1-15 mg/kg i.m., CCK-4 treated rats
smiles,measurement,setting,value
Cc1ccc2c(c1)c1c(n2CCc2ccc(C)nc2)CCN(C)C1 [latrepirdine dihydrochloride hydrate],"Entries, % increase as compared to CCK-4/Vehicle",[1]; 1 mg/kg i.m.,(47.37) %
same,"Entries, Mean ± SEM",[1]; 1 mg/kg i.m.,2.8 ± 0.4 n
same,"Time, % increase as compared to CCK-4/Vehicle",[1]; 1 mg/kg i.m.,(83.33) %
same,"Time, Mean ± SEM",[1]; 1 mg/kg i.m.,24.2 ± 4.7 s
same,"Entries, % increase as compared to CCK-4/Vehicle",[1]; 3 mg/kg i.m.,(31.58) %
same,"Entries, Mean ± SEM",[1]; 3 mg/kg i.m.,2.5 ± 0.2 n
same,"Time, % increase as compared to CCK-4/Vehicle",[1]; 3 mg/kg i.m.,(98.48) %
same,"Time, Mean ± SEM",[1]; 3 mg/kg i.m.,26.2 ± 3.3 s
same,"Entries, % increase as compared to CCK-4/Vehicle",[1]; 10 mg/kg i.m.,(73.68) * %
same,"Entries, Mean ± SEM",[1]; 10 mg/kg i.m.,3.3 ± 0.3 n
same,"Time, % increase as compared to CCK-4/Vehicle",[1]; 10 mg/kg i.m.,(158.33) ** %
same,"Time, Mean ± SEM",[1]; 10 mg/kg i.m.,34.1 ± 3.4 s
same,"Entries, % increase as compared to CCK-4/Vehicle",[1]; 15 mg/kg i.m.,(126.32) *** %
same,"Entries, Mean ± SEM",[1]; 15 mg/kg i.m.,4.3 ± 0.4 n
same,"Time, % increase as compared to CCK-4/Vehicle",[1]; 15 mg/kg i.m.,(266.67) **** %
same,"Time, Mean ± SEM",[1]; 15 mg/kg i.m.,48.4 ± 5.3 s
same,duration of attack,"[2]; 1 mg/kg, 3 mg/kg and 10 mg/kg, i.p.",significantly decreased
same,agitation/aggression in resident mice,[2],decreased agitation/aggression
"Cc1ccc2c(c1)c1c(n2CCc2ccc(C)nc2)CCN(C)C1 [latrepirdine, 2,8-dimethyl-5-[2-(6-methylpyridin-3-yl)ethyl]-3,4-dihydro-1H-pyrido[4,3-b]indole]",dose with the greatest effect on entries and time in open arms,[1]; [3],15 mg/kg
same,"number of entries to and time spent in the open arms, significance",[1]; [3],significant at the doses of 10 and 15 mg/kg
same,mean duration of attack,"[2]; latrepirdine 10 mg/kg, i.p.",36.87 s
same,agitation/aggression in resident mice,[2],significantly decreased agitation/aggression in resident mice
